Experimental data published in PubChem BioAssay (NCI).
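Growth conditions: 96-well plates. Treatment: test compound, 48 hours, 5 concentrations. Analysis: linear interpolation between bracketing concentrations; unreached endpoints set to highest concentration. At the TGI there is no net growth.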

Key:
Test in all cases: NCI-60 cell line screen, 48 h
[1] = system: HT29 colon
[2] = system: HS 578T breast
[3] = system: NCI-H23 lung
[4] = system: UO-31 renal
[5] = system: SK-MEL-2 melanoma
[6] = system: HCT-15 colon
[7] = system: COLO 205 colon
[8] = system: MDA-MB-231 breast
[9] = system: DU-145 prostate
[10] = system: HL-60(TB) leukemia

Row | SMILES | TGI [1] [µM] | TGI [2] [µM] | TGI [3] [µM] | TGI [4] [µM] | TGI [5] [µM] | TGI [6] [µM] | TGI [7] [µM] | TGI [8] [µM] | TGI [9] [µM] | TGI [10] [µM]
1 | COc1ccc(C2C(C#N)=C(S)N(C3OC(CO)C(O)C(O)C3O)C(C)=C2C(C)=O)cc1 (stereo unspecified) | > 100 | > 100 | > 100 | > 100 | > 100 | > 100 | > 100 | > 100 | > 100 | > 100
2 | CN(/N=C/c1ccc(Cl)cc1)C1=NCCCCN1 | > 100 | > 100 | > 100 | > 100 | – | > 100 | > 100 | > 100 | > 100 | > 100
3 | O=c1c2cc(I)ccc2nc(SCc2nnco2)n1Cc1ccccc1 | > 100 | > 100 | > 100 | 2.87 | > 100 | > 100 | > 100 | > 100 | > 100 | 35.4
4 | S=C(N/N=C(\C(=N/NC(=S)N1CCCCC1)c1ccccn1)c1ccccn1)N1CCCCC1 | > 100 | > 100 | > 100 | > 100 | – | > 100 | > 100 | > 100 | > 100 | 19.8
5 | O=C(NNS(=O)(=O)c1ccccc1)c1csc(NC(=S)NC2CCCCC2)n1 | > 100 | – | > 100 | 74.1 | 41.7 | > 100 | 43.3 | 52.6 | 81.5 | > 100
6 | C[C@]12CC[C@H](O)CC1=CC[C@@H]1[C@@H]2CC[C@]2(C)C(=O)/C(=C/c3ccc([N+](=O)[O-])cc3)C[C@@H]12 | > 100 | 29.5 | 57 | 28 | 36.5 | > 100 | – | – | 44.9 | > 100
7 | CN(C)CC1CCCc2ccccc2C1=O (stereo unspecified) | 3.38 | 16.3 | 15.2 | 3.45 | 4 | 4.55 | 12.5 | 9.7 | 10.7 | –
8 | O=c1[nH]c(=O)n(COCc2ccccc2)c2ccccc12 | > 100 | – | – | > 100 | > 100 | > 100 | > 100 | > 100 | > 100 | > 100
9 | O=C1CC(C(COCc2ccccc2)OCc2ccccc2)CC(=O)N1 (stereo unspecified) | > 100 | > 100 | > 100 | > 100 | – | > 100 | – | > 100 | > 100 | > 100
10 | CC(C)C1=C(Cc2ccccc2)C(=O)O/C1=C\c1ccc(O)c(Cl)c1 | 32.8 | 33.9 | 25.8 | 27.5 | – | 29.6 | 34.6 | 29.9 | 32.4 | 37.7
11 | COc1ccc(-c2nc(-c3cnccn3)n(Cc3ccccc3)n2)cc1 | > 100 | – | > 100 | > 100 | – | > 100 | > 100 | > 100 | > 100 | > 100
12 | Cc1c2cccc-2c(OCCOC(=O)n2ccnc2)cc2c1[nH]c1ccccc12 | 5.22 | > 100 | 6.31 | 3.39 | 5.48 | 5.95 | – | – | 22 | 5.46
13 | COc1cc(O)cc(O)c1C(=O)CC(Cl)(Cl)Cl | > 100 | > 100 | > 100 | > 100 | – | > 100 | > 100 | > 100 | > 100 | > 100
14 | O=C1CCC2(c3ccc(Cl)cc3)Nc3ncncc3N12 (stereo unspecified) | > 10 | > 10 | > 10 | > 10 | > 10 | > 10 | – | – | > 10 | –
15 | CCn1c(=O)c2c3ccc(OC)cc3[nH]c2c2ccc(OC)cc21 | > 100 | > 100 | > 100 | > 100 | – | > 100 | > 100 | > 100 | > 100 | –
16 | O=C1CCCCN1C(=O)c1ccc([N+](=O)[O-])cc1 | > 100 | > 100 | > 100 | > 100 | – | > 100 | – | > 100 | > 100 | > 100
17 | COc1cc(S(=O)(=O)Nc2ccc(-c3csc(N4C(=O)C(C)SC4c4ccccc4)n3)cc2)ccc1Cl (stereo unspecified) | > 100 | > 100 | > 100 | > 100 | 21.5 | > 100 | > 100 | – | > 100 | 47.7
